{"source": "paper PMC10447463", "about": "“Data-mining unveils structure–property–activity correlation of viral infectivity enhancing self-assembling peptides” (Nature Communications, 2023)", "key": {"[1]": {"system": "HIV-1 infection of TZM-bl cells", "assay": "HIV-1 infectivity enhancement assay, β-galactosidase luminescence", "assay_type": "cell-based"}, "TZM-bl cells": {"system": "TZM-bl cells", "assay_type": "cell-based", "details": "CellTiter-Glo, mean of n = 3 replicates", "method": "The cell viability after addition of peptides to TZM–bl cells was studied via the CellTiter–Glo assay. To this end, 10,000 cells were seeded and on the next day serial diluted peptides were added. After 3 days the supernatant was removed and 100 µL CellTiter–Glo Reagent 1:1 diluted in PBS was added. After 10 min 50 µL was transferred to white microplate and luminescence was recorded by Orion microplate luminometer.\n2. Cell Viability of Representatively Selected Peptides\nFigure S 2 Cell Viability normalized to 100% metabolic activity as determined by CellTiterGlo Assay of 57 representatively selected peptides from the library. The selection represents infectivity enhancing and not […]\nconcentration. Error bars indicate standard deviation from triplicate measurements. Source data for Figure S2 […]\nFigure S3 Cell Viability normalized to 100% metabolic activity determined by CellTiterGlo Assay of 20 peptides reported in literature. 33,34,43–48,35–42 Cell viability (> 80%) is maintained for all peptides at 1.3 µM concentration regardless of the preparation method, which is A PNF formation method by dilution of 10 mg/mL peptide stock in DMSO in PBS to 1 mg/mL or B preparation according to literature reported protocol (SI Section 8). Error bars indicate standard deviation from triplicate measurements. Source data for Figure S3 is provided."}, "[2]": {"assay": "Zeta-potential measurement", "assay_type": "physicochemical", "details": "zeta potential of peptide; Fig S15 source data", "how_it_was_run": "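Surface charge of aggregated peptides: 1 mg/mL solutions in PBS (pH 7.4) incubated 1 d at RT, diluted into 1 mM KCl just before reading. Electrophoretic mobility converted to zeta potential by the Smoluchowski formula; triplicate measurements from two separate experiments averaged.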"}}}
{"substance": "CKIW [TM81]", "values": [{"measurement": "infectivity", "setting": "[1]; infectivity class (low / medium / high) of the peptide in the sequence-pattern analysis, Fig. S22-A4, class limits not given", "value": "low"}, {"measurement": "Log10 Inf. rel. to EF-C", "setting": "[1]; log10 of HIV-1 infection of TZM-bl cells relative to EF-C, Fig S15 source data, asymmetric std dev errors", "value": -1.286}, {"measurement": "viability 0.26 µM", "setting": "TZM-bl cells; peptide 0.26 µM", "value": 106.2}, {"measurement": "viability 1.3 µM", "setting": "TZM-bl cells; peptide 1.3 µM", "value": 107.1}, {"measurement": "viability 6.5 µM", "setting": "TZM-bl cells; peptide 6.5 µM", "value": 100.6}, {"measurement": "Zeta-pot. / mV", "setting": "[2]", "value": -3.71, "unit": "mV"}]}
